Ends that are not written are not given here.
Columns and labels:
[1] = system: unilateral 6-OHDA-lesioned rats; test: Neurochemical content of tissue (HPLC-EC); type: in vivo, rat; settings: 5 weeks after infusion
Method: Unilateral 6-OHDA Lesions: The 6-OHDA solution was delivered to two injection sites along the medial forebrain bundle (MFB) using a protocol described by Lundblad et al. (2002) Eur. J. Neurosci. 15:120-132. Five weeks after the unilateral 6-OHDA MFB lesion procedure, animals were grouped based on apomorphine (0.05 mg/kg, s.c.)-induced rotational behaviour: Animals with >300 rotations per 60 minutes were selected. Lesioned animals received 5 vit of either a 20 μg/vd, DNSP-11 solution or citrate buffer vehicle solution in a manner similar to infusion delivery in normal animals.
Neurochemical Content of Tissue: Lesioned animals were euthanized 5 weeks after DNSP-11 or vehicle infusion. The brains were sliced into 1 mm thick sections. […]
The in vitro studies and in vivo measures of the effects of DNSP-11 led to an investigation of the potential neurorestorative properties of DNSP-11 to damaged dopamine neurons in a unilateral rat model of PD. […] At 5 weeks, the substantia nigra and striatum from each rat was analyzed by high performance liquid chromatography coupled with electrochemical detection.
Rats were tested 3-4 weeks after the injection of 6-OHDA using low-dose (0.05 mg/kg, i.p.) apomorphine to induce rotational behavior. […] At 5 weeks, the substantia nigra and striatum from each rat was analyzed by high performance liquid chromatography coupled with electrochemical detection.

[2] = system: mitochondrial-associated genes in the substantia nigra; test: Gene array analysis (Affymetrix) of substantia nigra after DNSP-11; type: in vivo, rat; settings: 48 h after bilateral 30 μg
Method: Changes in expression of mitochondrial-associated genes in the substantia nigra (SN) of three young adult (5 month old) male F344 rats 48 hours following bilateral intranigral injections of DNSP-11 into the substantial nigra was assessed as follows.
A 3 μg/μl DNSP-11 peptide solution was prepared in citrate buffer and filter sterilized. Stereotaxic injections were made of 30 μg DNSP-11 in 10 ul citrate buffer into the substantia nigra on each side of the brain. Controls received […] injections of vehicle. Forty-eight hours later, the animals were euthanized, the brains quickly recovered and sectioned so that the bilateral SN could be dissected out as one block of tissue and snap frozen in liquid nitrogen. RNA was extracted from the SN samples for gene array analysis, which was conducted on Affymetrix Version II chips. A gene chip was run for each of the six rats: three bilateral vehicle recipients, three bilateral 30 μg DNSP-11 recipients.

PPEAPAEDRSL-NH2 [DNSP-11, PPEAPAEDRSL-amide]
DOPAC tissue content, substantia nigra ([1]; vehicle 7.10±1.40 ng/g): 16.48 ± 4.01 ng/g
DA content, substantia nigra ([1]; vehicle 34.7±6.4 ng/g): 59.1 ± 7.3 ng/g
APP FOLD CHANGE ([2]; vs control): −1.08
BACEI FOLD CHANGE ([2]; vs control): −1.09
CASP3 FOLD CHANGE ([2]; vs control): 1.18
CASP8 FOLD CHANGE ([2]; vs control): 1.25
CAT FOLD CHANGE ([2]; vs control): 1.09
COX6A2 FOLD CHANGE ([2]; vs control): 1.75
COX6B1 FOLD CHANGE ([2]; vs control): 1.04
COX17 FOLD CHANGE ([2]; vs control): 1.11
GLRX2 FOLD CHANGE ([2]; vs control): 1.09
GPX7 FOLD CHANGE ([2]; vs control): 1.19
MAOB FOLD CHANGE ([2]; vs control): 1.13
MAP2K4 FOLD CHANGE ([2]; vs control): −1.12
MAPK9 FOLD CHANGE ([2]; vs control): −1.21
MAPK10 FOLD CHANGE ([2]; vs control): −1.08
NDUFA7 FOLD CHANGE ([2]; vs control): 1.07
PARK7 FOLD CHANGE ([2]; vs control): 1.02
PRDX5 FOLD CHANGE ([2]; vs control): 1.13
PSEN1 FOLD CHANGE ([2]; vs control): 1.16
TXN2 FOLD CHANGE ([2]; vs control): 1.10
CAT catalase expression level, PEPTIDE ([2]; P 0.015): 2828.2
CASP8 caspase 8 expression level, PEPTIDE ([2]; control 178.1, P 0.006): 219.4
GPX7 glutathione peroxidase 7 expression level, PEPTIDE ([2]; control 183.8, P 0.015): 194.2
CASP3 caspase 3 expression level, PEPTIDE ([2]; control 367.5, P 0.024): 421.4
BACEI beta-site APP-cleaving enzyme 1 expression level, PEPTIDE ([2]; control 510.6, P 0.016): 451.6
COX6A2 cytochrome c oxidase subunit Via polypeptide2 expression level, PEPTIDE ([2]; control 520.6, P 0.014): 814.1
MAPK10 mitogen-activated protein kinase 10 expression level, PEPTIDE ([2]; control 552.8, P 0.008): 505.0
PSEN1 presenilin 1 expression level, PEPTIDE ([2]; control 563.2, P 0.022): 673.5
MAPK9 mitogen-activated protein kinase 9 expression level, PEPTIDE ([2]; control 930.0, P 0.007): 770.7
TXN2 thioredoxin 2 expression level, PEPTIDE ([2]; control 1378.5, P 0.010): 1511.9
MAOB monoamine oxidase B expression level, PEPTIDE ([2]; control 1974.2, P 0.012): 2199.8
COX17 cytochrome c oxidase assembly homolog expression level, PEPTIDE ([2]; control 2017.8, P 0.025): 2326.1
MAP2K4 mitogen-activated protein kinase kinase 4 expression level, PEPTIDE ([2]; control 2744.4, P 0.043): 2422.4
NDUFA7 NADH dehydrogenase (ubiquinone) 1 alpha subcomplex, 7 expression level, PEPTIDE ([2]; control 2943.0, P 0.046): 3125.4
GLRX2 glutaredoxin 2 expression level, PEPTIDE ([2]; control 3472.2, P <0.001): 3618.7
PRDX5 peroxiredoxin 5 expression level, PEPTIDE ([2]; control 4790.1, P 0.020): 5569.8
PARK7 DJ-1 expression level, PEPTIDE ([2]; control 5159.4, P 0.032): 5299.2
COX6B1 cytochrome c oxidase subunit Vib polypeptide 1 expression level, PEPTIDE ([2]; control 7536.6, P 0.044): 7869.7
APP amyloid beta (A4) precursor protein expression level, PEPTIDE ([2]; control 10117.2, P 0.006): 9734.4
